Results: patent US20090047365A1, “Novel Concomitant Use of Sulfonamide Compound with Anti-Cancer Agent” (Eisai R & D Management Co., Ltd., priority 2005, published 2009)
“And” between values parts separate entries of the source, which are not always exact repeats. Identical values can stand only once. Counter-ions that a name gives are not always drawn. Like-named read-outs stand apart in the source and are kept apart here.

Legend:
[1] = test system: Human umbilical vein endothelial cells; assay: vascular endothelial cell proliferation assay (in vitro), combinational use of E7820 and anti-cancer drug; type: cell-based
Procedure: These diluted solutions were added to the cultured wells for 100 μl/well for further cultivation.

[2] = test system: Human umbilical vein endothelial cell (HUVEC); assay: vascular endothelial cell lumen formation assay (in vitro), combinational use of E7820 and anti-cancer drug; type: cell-based
Procedure: Four-hundred μl of type I collagen gel (Nitta Gelatin) was dispensed in a 24-well plate (FALCON) and left in a CO2 incubator at 37° C. for 40 minute for gelatinization. A serum-free medium (Human endothelial-SFM Basal Growth Medium, Invitrogen) containing 20 ng/ml EGF (GIBCO BRL) was prepared. Two-hundred μl of this solution was dispensed in the wells containing type I collagen gel. Human umbilical vein endothelial cell (HUVEC) line was suspended in a serum-free medium (Human endothelial-SFM Basal Growth Medium, GIBCO BRL) to prepare 5×10^5 cells/ml cell suspension. Two-hundred μl of this suspension was seeded on the wells containing the type I collagen gel and the serum-free medium and cultured overnight.
On the following day, the wells were overlaid with 400 μl of type I collagen gel and left in a CO2 incubator at 37° C. for 3 hours for gelatinization. Then, the serum-free media (containing 10 ng/ml EGF and 20 ng/ml VEGF (Genzyme Techne Corp.)) containing E7820 alone, containing an anti-cancer drug alone and containing both E7820 and the anti-cancer drug for combinational use were added for 1.5 ml each and further cultured in a CO2 incubator at 37° C. for 3 days.
After the cultivation, 400 μl of 3.3 mg/ml MTT (SIGMA) solution was dispensed in the wells and reacted in a CO2 incubator at 37° C. for 3 hours for the cells to develop color.

HCT116 cells = assay: DNA microarray analysis (Example 8), correlation coefficients and hierarchical cluster analysis; type: cell-based, human; settings: 24 hours treatment at twice the 50% growth inhibitory concentration, similarity among the compounds named together
Procedure: HCT116 cells were cultured in an RPMI-1640 medium supplemented with 10% fetal bovine serum, 100 units/ml penicillin and 100 μg/ml streptomycin. The following cultivation and compound treatment were carried out in an incubator at 5% CO2 and 37° C. HCT116 cells were seeded in 10 cm-diameter cell culture dishes at 2.0×10^6 cells/dish, cultured for 24 hours and subjected to the following compound treatment.
In this example, changes in the gene expression of HCT116 cells upon treatments with 12 compounds, i.e., E7820 (0.16 μM), E7070 (0.26 μM), LY186641 (59 μM), LY295501 (24 μM), LY-573636 (9.6 μM), CQS (4.0 μM), MST16 (100 μM), etoposide (3.6 μM), ethoxzolamide (410 μM), capsaicin (280 μM), trichostatin A (0.16 μM) and kenpaullone (7.1 μM) were examined.
The concentration of each compound used for the treatment was set to twice the 50% growth inhibitory concentration of each compound to the HCT116 cells (based on three days of antiproliferatrive activity using MTT). The cells were collected 24 hours after the treatment at the concentration indicated in parentheses following each compound name above. Similarly, cells cultured for 24 hours without the addition of any compound were also collected.
Total RNA extraction from the collected cells was performed using TRIZOL reagent (Invitrogen) according to the attached instruction.
Gene expression analysis using a DNA microarray was carried out in the same manner as “(2) Analysis of gene expression using DNA microarray” in Example 7.
This example was conducted for each sample in duplicate (for the convenience of the experiment, samples were given branch numbers like control-1, control-2, E7070-1, E7070-2 and so on for distinction). Then, GeneChip (Affymetrix) system (Human Focus array) was used for analyzing changes in the gene expression induced by each compound.
Twenty-six “.cel” files obtained in this example (13 samples (a control+12 compounds)×2) were subjected to RMA method (robust multi-array average method (Biostatistics (2003), 4, 249-264)) for normal distribution at probe level, and then the logarithm value of the signal intensity at gene level was calculated. Next, the logarithm value of the signal intensity of the untreated group (control-1) was subtracted from the logarithm value of the signal intensity of the compound-treated group for each gene to obtain the logarithm value of the signal ratio of the compound-treated group to control-1. Then, cosine correlation coefficients were calculated as correlation coefficients between the experiments (FIG. 5). Based on these correlation coefficients, hierarchical cluster analysis was performed according to UPGMA method (Unweighted Pair Group Method with Arithmetic mean method) (FIG. 6). Control-2 was also subjected to similar calculation (FIGS. 7 and 8). The softwares used were R 2.0.1 (http://www.r-project.org/) and affy package 1.5.8 (http://www.bioconductor.org).

HCT116-C9 = assay: cell growth inhibition assay (MTT), parent line of E7070-resistant lines; type: cell-based, human; settings: HCT116-C9, 72 hours, Example 11, read-out: antiproliferative activity IC50
Procedure: An E7070-resistant cell line was used to assess the antiproliferative activities of E7820, LY186641, LY295501, LY-ASAP and CQS. HCT116-C9 was a substrain separated from human colon cancer-derived HCT116 (American Type Culture Collection, Manassas, Va., U.S.A.). This HCT116-C9 was cultured in the presence of E7070 while incrementally increasing the E7070 concentration, thereby obtaining E7070-resistant substrains HCT116-C9-C1 and HCT116-C9-C4 (Molecular Cancer Therapeutics, 2002, 1, 275-286).
Three cell lines, i.e., HCT116-C9, HCT116-C9-C1 and HCT116-C9-C4, were each seeded at 3000 cells/well onto a 96-well microplate (flat bottom) (50 μl/well). Twenty-four hours later, they were added with a 3-fold dilution series of each compound (50 μl/well). Seventy-two hours later, the antiproliferative activities were assessed by MTT method (Mossmann T., J. Immunol. Methods, 1983, 65, 55-63). The 50% growth inhibitory concentrations to the cancer cells were obtained by a least square method.
In exactly the same manner as in Example 10, an E7070-resistant cell line was used to assess the antiproliferative activities of LY573636 as well as those of E7070.

[3] = combined with E7820, fa 0.6, HUVEC proliferation
[4] = combined with E7820, fa 0.7, HUVEC proliferation
[5] = combined with E7820, fa 0.8, HUVEC proliferation
[6] = combined with E7820, fa 0.9, HUVEC proliferation
[7] = combined with E7820, fa 0.95, HUVEC proliferation

Row | Molecule | Combined effect [1, 4] | Combined effect [1, 5] | Combined effect [1, 6] | Combined effect [1, 7] | Combined effect ([2]; combined with E7820, fa 0.3) | Combined effect ([2]; combined with E7820, fa 0.4) | Combined effect ([2]; combined with E7820, fa 0.5) | Combined effect ([2]; combined with E7820, fa 0.6) | Combined effect ([2]; combined with E7820, fa 0.7) | Combined effect ([2]; combined with E7820, fa 0.8) | Combined effect ([2]; combined with E7820, fa 0.9) | Combined effect ([2]; combined with E7820, fa 0.95) | changes in gene expression (correlation coefficients, hierarchical cluster analysis) (HCT116 cells) | further results
1 | 10-[(3-amino-2,3,6-trideoxy-α-L-lyxo-hexopyranosyl)oxy]-7,8,9,10-tetrahydro-6,8,11-tri hydroxy-8-(hydroxyacetyl)-1-methoxy-(8S-cis)-5,12-naphthacenedione [Doxorubicin] | Synergistic | Synergistic | Synergistic | Synergistic | Synergistic | Synergistic | Synergistic | Synergistic | Synergistic | Synergistic | Synergistic | Synergistic |  | Combined effect [1, 3]: Synergistic; Combined effect ([2]; combined with E7820, fa 0.2): Synergistic
2 | Nc1ccc(S(=O)(=O)Nc2cnc3c(Cl)cccc3n2)cc1 [CQS, 2-sulfanylamide-5-chloroquinoxaline] |  |  |  |  |  |  |  |  |  |  |  |  | very similar genetic alterations | 
3 | N.N.[Cl][Pt][Cl] [Cisplatin, cis-diamminedichloroplatinum II] | Synergistic | Synergistic | Synergistic | Synergistic | Synergistic | Synergistic | Synergistic | Synergistic | Synergistic | Synergistic | Synergistic | Synergistic |  | Combined effect [1, 3]: Synergistic; Combination index (CI) [1, 4]: 0.7; Combination index (CI) [1, 5]: 0.5; Combination index (CI) [1, 6]: 0.4; Combination index (CI) [1, 7]: 0.3; Combination index (CI) ([1]; combined with E7820, fractional inhibition (fa) 0.6, HUVEC proliferation): 0.9; Combination index (CI) ([2]; combined with E7820, fa 0.05): 0.7; Combined effect ([2]; combined with E7820, fa 0.05): Synergistic; Combination index (CI) ([2]; combined with E7820, fa 0.1): 0.6; Combined effect ([2]; combined with E7820, fa 0.1): Synergistic; Combination index (CI) ([2]; combined with E7820, fa 0.2): 0.6; Combined effect ([2]; combined with E7820, fa 0.2): Synergistic; Combination index (CI) ([2]; combined with E7820, fa 0.3): 0.6; Combination index (CI) ([2]; combined with E7820, fa 0.4): 0.5; Combination index (CI) ([2]; combined with E7820, fa 0.5): 0.5; Combination index (CI) ([2]; combined with E7820, fa 0.6): 0.5; Combination index (CI) ([2]; combined with E7820, fa 0.7): 0.5; Combination index (CI) ([2]; combined with E7820, fa 0.8): 0.5; Combination index (CI) ([2]; combined with E7820, fa 0.9): 0.5; Combination index (CI) ([2]; combined with E7820, fa 0.95): 0.4
4 | NS(=O)(=O)c1ccc(S(=O)(=O)Nc2cccc3c(Cl)c[nH]c23)cc1 [E7070, N-(3-chloro-1H-indole-7-yl)-4-sulfamoylbenzenesulfonamide] |  |  |  |  |  |  |  |  |  |  |  |  | very similar genetic alterations | IC50 (HCT116-C9): 127 nM
5 | Nc1ccn([C@@H]2O[C@H](CO)[C@@H](O)C2(F)F)c(=O)n1 [Gemcitabine, 2′-deoxy-2′,2′-difluoro-cytidine hydrochloride] |  | Synergistic | Synergistic |  | Synergistic | Synergistic | Synergistic | Synergistic | Synergistic | Synergistic | Synergistic | Synergistic |  | 
6 | O=C(Nc1ccc(Cl)cc1)NS(=O)(=O)c1ccc2c(c1)CCC2 [LY186641, N-[[(4-chlorophenyl)amino]carbonyl]-2,3-dihydro-1H-indene-5-sulfonamide] |  |  |  |  |  |  |  |  |  |  |  |  | very similar genetic alterations | 
7 | O=C(Nc1ccc(Cl)c(Cl)c1)NS(=O)(=O)c1ccc2c(c1)CCO2 [LY295501, N-[[(3,4-dichlorophenyl)amino]carbonyl]-2,3-dihydrobenzofuran-5-sulfonamide] |  |  |  |  |  |  |  |  |  |  |  |  | very similar genetic alterations | 
8 | O=C(NS(=O)(=O)c1ccc(Br)s1)c1ccc(Cl)cc1Cl [LY573636, N-(2,4-dichlorobenzoyl)-5-bromothiophene-2-sulfonamide] |  |  |  |  |  |  |  |  |  |  |  |  | very similar genetic alterations | 
9 | CN(Cc1cnc2nc(N)nc(N)c2n1)c1ccc(C(=O)N[C@@H](CCC(=O)O)C(=O)O)cc1 [Methotrexate, N-{4-[N-(2,4-diaminopteridin-6-ylmethyl)-N-methylamino]benzoyl}-L-glutamic acid] |  |  | Synergistic | Synergistic |  |  |  |  |  |  |  |  |  | 
10 | CC(=O)O[C@H]1C(=O)[C@@]2(C)[C@H]([C@H](OC(=O)c3ccccc3)[C@]3(O)C[C@H](OC(=O)[C@H](O)[C@@H](NC(=O)c4ccccc4)c4ccccc4)C(C)=C1C3(C)C)[C@]1(OC(C)=O)CO[C@@H]1C[C@@H]2O [Paclitaxel, (−)-(1S, 2R, 3S, 4S, 5R, 7S, 8S, 10R, 13S)-4,10-diacetoxy-2-benzoyloxy-5,20-epoxy, 1,7-dihydroxy-9-oxotax-11-en-13-yl (2S,3S)-3-benzoylamino-2-hydroxy-3-phenylpropionate] | Synergistic | Synergistic | Synergistic | Synergistic |  |  |  |  | Synergistic | Synergistic | Synergistic | Synergistic |  | 
11 | CCc1c2c(nc3ccc(O)cc13)-c1cc3c(c(=O)n1C2)COC(=O)[C@]3(O)CC [SN38, 7-ethyl-10-hydro-(20)S-Camptothecin] | Synergistic | Synergistic | Synergistic | Synergistic | Synergistic | Synergistic | Synergistic | Synergistic | Synergistic | Synergistic | Synergistic | Synergistic |  | Combination index (CI) [1]: 0.6 and 0.5 and 0.8; Combined effect [1, 3]: Synergistic
